# Laboratory results reported in patent US6579851B2, “Effects of glucagon-like peptide-1 (7-36) on antro-pyloro-duodenal motility” (Amylin Pharmaceuticals, Inc., priority 2000, dated 2003).
# Like-named read-outs stand apart in the source and are kept apart here.
# Key:
# [1] = Plasma insulin during intravenous GLP-1 infusion (immunoassay); assay type: in vivo, human
# Experimental: (§1) All values were expressed as mean±SEM. […] Differences were considered significant at P<0.05.
# (§2) All studies were performed after an overnight fast.
# (§3) The plasma was stored at −20° C. until assayed.
# [2] = Plasma glucagon immunoreactivity during intravenous GLP-1 infusion; assay type: in vivo, human
# Experimental: as §1, §2, §3
# [3] = for GLP-1 (plasma immunoreactivity, AUC over basal): 60 min period, mean ± SEM
# Experimental: Plasma glucose concentrations were measured using a glucose analyzer by the glucose oxidase method (YSI 1500 G; Schlag, Bergisch-Gladbach, Germany), with a coefficient of variation of <2%. Plasma insulin was measured by the Abbott Imx Microparticle Enzyme Immunoassay, with an average intraassay coefficient of variation of 5%. Plasma immunoreactivities of C-peptide, glucagon, and pancreatic polypeptide (PP) were analyzed by commercially available radioimmunoassay kits (Biermann, Bad Nauheim, Germany and Euradiagnostica, The Netherlands [PP]). […] The detection limit of the assay was 0.25 pmol/l. […] Intra- and inter-assay coefficients of variation were 3.4 and 10.4%, respectively. All values were expressed as mean±SEM. Plasma and motility parameters were separately analyzed for each 60 min period. Pyloric tone was calculated as change from basal, the latter being determined as mean pyloric tone during the total basal period before starting the experiments. Differences of plasma hormones and glucose compared to the basal state were calculated as integrated values over basal (area under the response curve; AUC). Basal levels of plasma parameters were determined as the mean of the two basal values just before the start of each experiment. All samples were first tested for normality by the Kolmogoroff-Smirnoff test. Differences between experimental sets for each parameter were analysed by two-way repeated measures analysis of variance employing intravenous infusion and duodenal perfusion as factors. When this analysis indicated differences, a Student-Newman-Keuls multicomparison test was performed. Differences were considered significant at P<0.05.
# Eleven healthy male volunteers, 23 to 28 years old and within 10% of ideal body weight, participated in the studies. None of them were taking medication, or suffering from gastrointestinal symptoms or systemic disease.
# All studies were performed after an overnight fast. Two experiments were performed, separated by at least 1 week on subjects lying in a semirecumbent position. An indwelling catheter was inserted into an antecubital vein for intravenous infusions. A second catheter was inserted into a dorsal vein of the contralateral hand in a retrograde fashion for sampling of arterialized blood (Schirra et al. Proc Assoc Am Physicians 109, 84-97 (1997)).
# On the interdigestive study day, 0.154 M saline was continuously perfused into the region of the lower duodenal flexure at a rate of 2.5 ml/min. […] On the postprandial study day, the same intravenous infusions were administered with an intraduodenal lipid perfusion at 2.5 kcal/min (2.5 ml/min, Lipofundin MCT 10%, Braun Co., Melsungen, Germany). This lipid preparation consisted of 50% medium-chain triglycerides (MCT) and 50% long-chain triglycerides (LCT, soya bean oil).
# Throughout the experiment, blood samples were taken immediately before the start of intravenous infusion, as well as in 10-min intervals thereafter. Blood was collected in ice-chilled EDTA tubes containing 1000 aprotinin (kallikrein inhibitory units/ml blood) and was centrifuged immediately. The plasma was stored at −20° C. until assayed.
# pyloric motility = assay: Pyloric motility (IPPW, pyloric tone) and duodenal phase III by perfusion manometry; assay type: in vivo, human; conditions: for Volunteers with duodenal phase III: within 10 min after GLP-1 infusion; for Pyloric Motility IPPW: actual values; for Pyloric tone: values over basal
# Experimental: Inhibition of antro-duodenal activity is assessed directly by motility recordings using methods that are well known to the skilled artisan. Contractile events are analyzed with a computer and validated software (Katschinski et al., Gastroenterol. 103, 383-91 (1992)) and only peaks with amplitudes of at least 10 mmHg and a duration of at least 2 s are considered true contractions. Duodenal phase III is defined as the occurrence of regular contractions at a frequency of ≧10/min for at least 2 min in the duodenum propagated aborally.
# As used herein, “inhibition” of antro-pyloro-duodenal motility is defined as a reduction in the motility index. Other methods for measuring motility can be used. One of skill in the art will appreciate that a significant inhibition, including total inhibition, of motility will be useful.
# The present invention also relates to therapeutic methods associated with stimulating pyloric motility. Two parameters used to describe pyloric motility are: 1) Isolated pyloric pressure waves (IPPW), defined as contractions registered by the sleeve with or without simultaneous contractions in maximally one sleeve-side-hole in the absence of associated (±3 sec) waves of any amplitude in the adjacent antral and duodenal side-holes and 2) pyloric tone. Pyloric tone is measured by deducting the basal pressure recorded by the antral side hole at the proximal end of the sleeve, from the basal pressure recorded by the sleeve. Basal pressures is defined as the mean pressure after excluding contractions; it is obtained each minute and used to calculate mean pyloric tone.
# as §1, §2
# Perfusion manometry was recorded using a nine-lumen duodenal sleeve/side-hole catheter (Dentsleeve, South Australia, Australia). The manometric assembly incorporated a 4.5 cm long sleeve sensor, two antral side-holes (2 cm apart), and three duodenal side-holes (2 cm apart), beginning at the proximal and distal end of the sleeve, respectively. Two more side-holes were positioned across the sleeve spaced 1.5 cm apart. An additional lumen located 12 cm distal to the sleeve sensor was used for duodenal perfusion.
# The correct position of the duodenal probe with the sleeve array straddling the pylorus was fluoroscopically checked before start of each experiment, and monitored throughout each study by measuring the transmucosal potential difference at the distal antral and the proximal duodenal port, as previously described (Schirra et al. J Clin Invest 97, 92-103 (1996)). A difference of at least −15 mV indicated correct transpyloric position of the tube.
# The motility channels were perfused at a rate of 0.3 ml/min using a low-compliance pneumohydraulic pump (Arndorfer Medical Specialists, Greendale, Wis.). Pressures were measured by external transducers. Data were simultaneously recorded on the screen of a multichannel chart system (PC Polygraph, Synectics Medical, Stockholm, Sweden) and stored in the memory of a personal computer. Data were sampled and digitized at 8 Hz followed by digital smoothing by a factor of 2.
# [4] = Plasma glucose during intravenous GLP-1 infusion (glucose oxidase method); assay type: in vivo, human; conditions: for Nadir of plasma glucose: at 20 min
# Experimental: as §1, §2, §3
# [5] = intraduodenal lipid, high dose 1.2 pmol·kg−1·min−1 iv.
# [6] = intraduodenal lipid, low dose 0.4 pmol·kg−1·min−1 iv.
# [7] = intraduodenal saline, high dose 1.2 pmol·kg−1·min−1 iv.
# [8] = intraduodenal saline, low dose 0.4 pmol·kg−1·min−1 iv.
# [9] = low dose GLP-1, interdigestive state
compound,measurement,setting,value
"CC[C@H](C)[C@H](NC(=O)[C@H](Cc1ccccc1)NC(=O)[C@H](CCC(=O)O)NC(=O)[C@H](CCCCN)NC(=O)[C@H](C)NC(=O)[C@H](C)NC(=O)[C@H](CCC(N)=O)NC(=O)CNC(=O)[C@H](CCC(=O)O)NC(=O)[C@H](CC(C)C)NC(=O)[C@H](Cc1ccc(O)cc1)NC(=O)[C@H](CO)NC(=O)[C@H](CO)NC(=O)[C@@H](NC(=O)[C@H](CC(=O)O)NC(=O)[C@H](CO)NC(=O)[C@@H](NC(=O)[C@H](Cc1ccccc1)NC(=O)[C@@H](NC(=O)CNC(=O)[C@H](CCC(=O)O)NC(=O)[C@H](C)NC(=O)[C@@H](N)Cc1c[nH]cn1)[C@@H](C)O)[C@@H](C)O)C(C)C)C(=O)N[C@@H](C)C(=O)N[C@@H](Cc1c[nH]c2ccccc12)C(=O)N[C@@H](CC(C)C)C(=O)N[C@H](C(=O)N[C@@H](CCCCN)C(=O)NCC(=O)N[C@@H](CCCNC(=N)N)C(N)=O)C(C)C [GLP-1, glucagon-like peptide-1(7-36)amide]",Insulin (AUC over basal),[1]; [5],31.4 ± 8.4∥ mU/l · 60 min
same,Insulin (AUC over basal),[1]; [6],24.7 ± 4.8∥ mU/l · 60 min
same,Insulin (AUC over basal),[1]; [7],11.9 ± 5.1 mU/l · 60 min
same,Insulin (AUC over basal),[1]; [8],11.3 ± 2.4 mU/l · 60 min
same,Glucagon (AUC over basal),[2]; [5],48.0 ± 33.8*‡∥ pg/ml · 60 min
same,Glucagon (AUC over basal),[2]; [6],99.7 ± 25.1*∥ pg/ml · 60 min
same,Glucagon (AUC over basal),[2]; [7],−68.6 ± 28.9 pg/ml · 60 min
same,Glucagon (AUC over basal),[2]; [8],−59.0 ± 37.1 pg/ml · 60 min
same,"GLP-1 (plasma immunoreactivity, AUC over basal)","[3]; intraduodenal lipid 2.5 kcal/min, GLP-1 iv. high dose 1.2 pmol·kg−1·min−1",75.2 ± 3.9*‡∥ pmol/l · 60 min
same,"GLP-1 (plasma immunoreactivity, AUC over basal)","[3]; intraduodenal lipid 2.5 kcal/min, GLP-1 iv. low dose 0.4 pmol·kg−1·min−1",33.8 ± 2.9*∥ pmol/l · 60 min
same,"GLP-1 (plasma immunoreactivity, AUC over basal)","[3]; intraduodenal saline, GLP-1 iv. high dose 1.2 pmol·kg−1·min−1",67.4 ± 4.0 pmol/l · 60 min
same,"GLP-1 (plasma immunoreactivity, AUC over basal)","[3]; intraduodenal saline, GLP-1 iv. low dose 0.4 pmol·kg−1·min−1",25.2 ± 2.6 pmol/l · 60 min
same,Time to constant plasma levels after start of infusion,"[3]; iv. infusion, duodenal saline and lipid",≤ 20 min
same,Subjects with duodenal phases III,pyloric motility; GLP-1 infusion in conjunction with lipid perfusion,two out of 11
same,Volunteers with duodenal phase III,"pyloric motility; high dose GLP-1, interdigestive state",five
same,Pyloric Motility IPPW,pyloric motility; [5],15.5 ± 2.1 number/10 min
same,Pyloric tone,pyloric motility; [5],8.6 ± 1.0 mmHg
same,Pyloric Motility IPPW,pyloric motility; [6],15.7 ± 2.5 number/10 min
same,Pyloric tone,pyloric motility; [6],7.4 ± 1.0 mmHg
same,Pyloric Motility IPPW,pyloric motility; [7],8.6 ± 1.3 number/10 min
same,Pyloric tone,pyloric motility; [7],7.3 ± 1.5 mmHg
same,Pyloric Motility IPPW,pyloric motility; [8],10.1 ± 1.9 number/10 min
same,Pyloric tone,pyloric motility; [8],5.3 ± 0.9 mmHg
same,Time until increase of pyloric tone was fully established,pyloric motility; [9],≤ 20 min
same,Time until increase of pyloric tone was significant,pyloric motility; [9],≤ 10 min
same,Volunteers with duodenal phase III,pyloric motility; [9],seven out of 11
same,Nadir of plasma glucose,[4]; high dose GLP-1,3.64 ± 0.14 mmol/L
same,Plasma glucose (AUC over basal),[4]; [5],−4.5 ± 0.7*∥ mmol/l · 60 min
same,Plasma glucose (AUC over basal),[4]; [6],−4.7 ± 0.5*∥ mmol/l · 60 min
same,Plasma glucose (AUC over basal),[4]; [7],−2.5 ± 0.4 mmol/l · 60 min
same,Plasma glucose (AUC over basal),[4]; [8],−2.3 ± 0.3 mmol/l · 60 min
same,Nadir of plasma glucose,[4]; low dose GLP-1,3.58 ± 0.12 mmol/L
